target: T1, delta-5-desaturase (Rattus norvegicus, UniProt Q920R3); assay: Inhibitory activity on delta-5-desaturase (rat liver microsomal fraction, 14C-eicosatrienoic acid, TLC); assay type: biochemical; conditions: test compound at 10 μM, room temperature, 120 minutes
T1 construct: the microsomal fraction of a rat river (10 μl), which had been diluted to 3 mg/ml; from tissue; host or cells: rat liver microsomal fraction
Description: An inhibitory activity of a test compound on delta-5-desaturase was measured according to the method described herein below. To a DMSO solution of the test compound which had been previously prepared, secondary dilution was carried out by using a buffer (300 mM NaH2PO4 [pH 7.4], 450 mM KCl, 30 mM NaF, 9 mM MgCl2, 4.5 mM glutathione [reduced form], 0.3% BSA [fatty acid free, SIGMA]). This diluent compound (10 μl) was added in a 96-well deep well block made of polypropylene, and then the microsomal fraction of a rat river (10 μl), which had been diluted to 3 mg/ml by using a microsome buffer (10 mM Tris-HCl [pH 7.4], 1 mM EDTA, and 250 mM sucrose), was added thereto. The enzyme reaction was initiated by adding 10 μl of 9 mM NADH, 9 mM ATP, 0.9 mM CoA and 10 μCi/ml (8E,11E,14E)-(1-^14C)eicosa-8,11,14-trienoic acid (PerkinElmer Inc.). The enzyme reaction was carried out at room temperature for 120 minutes, and then terminated by addition of 2.5 M NaOH (10 μl). Upon the completion of the reaction, the plate was covered with plate seal and incubated overnight in a dry heater of which temperature was set at 55° C. for saponification. Based on Bligh & Dyer method which had been described in a known document, Canadian Journal of Biochemistry and Physiology (Can. J. Biochem. Physiol.), Vol. 37, page 911, 1959), the solvent extraction of fatty acid was carried out by adding 200 μl of formic acid:methanol:chloroform (1:6:3), keeping the mixture as a single layer for a while, stirring the mixture to a sufficient level, and adding 120 μl of pure water to separate the mixture into two layers. 10 μl of the bottom chloroform layer was spotted on a reverse phase TLC plate (RP-18, 1154230001, Merck Japan, Ltd.) and then developed with acetonitrile:pure water:acetic acid (95:4.5:0.5). The TLC plate obtained after drying was transferred to an Imaging Plate (Fuji Photo Film Co., Ltd.) for more than 5 hours. Detection was carried out by using BAS-5000 (Fuji Photo Film Co., Ltd.). Numerization of thus-obtained image was carried out by using Multi Gauge Ver 2.3 (Fuji Photo Film Co., Ltd.) and an inhibitory ratio (%) of the test compound at 10 μM on delta-5-desaturase was obtained.

T1 sequence (Q920R3 whole entry): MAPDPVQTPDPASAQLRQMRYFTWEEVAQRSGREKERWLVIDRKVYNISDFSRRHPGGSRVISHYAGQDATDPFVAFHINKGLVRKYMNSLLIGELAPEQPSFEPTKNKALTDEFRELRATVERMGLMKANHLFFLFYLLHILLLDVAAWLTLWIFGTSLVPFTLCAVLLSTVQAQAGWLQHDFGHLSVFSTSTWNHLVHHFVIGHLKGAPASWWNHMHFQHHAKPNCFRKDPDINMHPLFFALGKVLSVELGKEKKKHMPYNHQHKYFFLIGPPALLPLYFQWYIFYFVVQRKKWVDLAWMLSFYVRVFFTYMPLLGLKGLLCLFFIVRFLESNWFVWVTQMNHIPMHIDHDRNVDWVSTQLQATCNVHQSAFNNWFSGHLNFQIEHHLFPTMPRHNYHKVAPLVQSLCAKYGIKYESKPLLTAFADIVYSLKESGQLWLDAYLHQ

| inhibition at 10 µM [%] | Compound |
| --- | --- |
| 101 | O=c1c2[nH]ccc2nc(SC(F)F)n1-c1ccc(OCC(F)(F)F)cc1 [Example 129, 2-[(Difluoromethyl)sulfanyl]-3-[4-(2,2,2-trifluoroethoxy)phenyl]-3,5-dihydro-4H-pyrrolo[3,2-d]pyrimidin-4-one] |
| 101 | CCOCCSc1nc2cc[nH]c2c(=O)n1-c1ccc(OCC(F)(F)F)cc1 [Example 74, 2-[(2-Ethoxyethyl)sulfanyl]-3-[4-(2,2,2-trifluoroethoxy)phenyl]-3,5-dihydro-4H-pyrrolo[3,2-d]pyrimidin-4-one] |
| 99 | CC(C)(O)CSc1nc2c(c(=O)n1-c1ccc(OCC(F)(F)F)cc1)CC(=O)N2 [Example 315, 2-[(2-Hydroxy-2-methylpropyl)sulfanyl]-3-[4-(2,2,2-trifluoroethoxy)phenyl]-5,7-dihydro-3H-pyrrolo[2,3-d]pyrimidine-4,6-dione] |
| 100 | CC1(O)CCN(C(=O)CCCSc2nc3cc[nH]c3c(=O)n2-c2ccc(OCC(F)(F)F)cc2)CC1 [Example 134, 2-{[4-(4-Hydroxy-4-methylpiperidin-1-yl)-4-oxobutyl]sulfanyl}-3-[4-(2,2,2-trifluoroethoxy)phenyl]-3,5-dihydro-4H-pyrrolo[3,2-d]pyrimidin-4-one] |
| 101 | O=c1c2[nH]ccc2nc(SCCCOC2CCOCC2)n1-c1ccc(OCC2CC2)cc1 [Example 157, 3-[4-(Cyclopropylmethoxy)phenyl]-2-{[3-(tetrahydro-2H-pyran-4-yloxy)propyl]sulfanyl}-3,5-dihydro-4H-pyrrolo[3,2-d]pyrimidin-4-one] |
| 99 | CCOc1nc2[nH]ccc2c(=O)n1-c1ccc(OCC(F)(F)F)cc1 [Example 209, 2-Ethoxy-3-[4-(2,2,2-trifluoroethoxy)phenyl]-3,7-dihydro-4H-pyrrolo[2,3-d]pyrimidin-4-one] |
| 101 | N#CCCNC(=O)CCCSc1nc2cc[nH]c2c(=O)n1-c1ccc(OCC2CCC2)cc1 [Example 82, N-(2-cyanoethyl)-4-({3-[4-(cyclobutylmethoxy)phenyl]-4-oxo-4,5-dihydro-3H-pyrrolo[3,2-d]pyrimidin-2-yl}sulfanyl)butanamide] |
| 98 | O=C1Cc2c(nc(Oc3ccc(F)cc3)n(-c3ccc(OCC(F)(F)C(F)(F)F)cc3)c2=O)N1 [Example 311, 2-(4-Fluorophenoxy)-3-[4-(2,2,3,3,3-pentafluoropropoxy)phenyl]-5,7-dihydro-3H-pyrrolo[2,3-d]pyrimidine-4,6-dione] |
| 99 | Cc1c[nH]c2c(=O)n(-c3ccc(OCC(F)(F)F)cc3)c(SCCCC(=O)NCCC#N)nc12 [Example 172, N-(2-cyanoethyl)-4-({7-methyl-4-oxo-3-[4-(2,2,2-trifluoroethoxy)phenyl]-4,5-dihydro-3H-pyrrolo[3,2-d]pyrimidin-2-yl}sulfanyl)butanamide] |
| 98 | CCSc1nc2cc[nH]c2c(=O)n1-c1ccc(OCC2CC2)cc1 [Example 153, 3-[4-(Cyclopropylmethoxy)phenyl]-2-(ethylsulfanyl)-3,5-dihydro-4H-pyrrolo[3,2-d]pyrimidin-4-one] |

Continued, compound first:

| Compound | inhibition at 10 µM [%] |
| --- | --- |
| O=c1c2cc[nH]c2nc(SC(F)F)n1-c1ccc(OCC(F)(F)F)cc1 [Example 223, 2-[(Difluoromethyl)sulfanyl]-3-[4-(2,2,2-trifluoroethoxy)phenyl]-3,7-dihydro-4H-pyrrolo[2,3-d]pyrimidin-4-one] | 103 |
| O=c1c2[nH]ccc2nc(SCCCS(=O)(=O)CC2CC2)n1-c1ccc(OCC(F)(F)F)cc1 [Example 165, 2-({3-[(Cyclopropylmethyl)sulfonyl]propyl}sulfanyl)-3-[4-(2,2,2-trifluoroethoxy)phenyl]-3,5-dihydro-4H-pyrrolo[3,2-d]pyrimidin-4-one] | 99 |
| CCn1ccc2c(=O)n(-c3ccc(OCC(F)(F)F)cc3)c(SCCCC(=O)NCCC#N)nc21 [Example 193] | 100 |
| O=C1Cc2c(nc(OCC(F)(F)F)n(-c3ccc(OCC(F)(F)F)c(F)c3)c2=O)N1 [Example 309, 3-[3-Fluoro-4-(2,2,2-trifluoroethoxy)phenyl]-2-(2,2,2-trifluoroethoxy)-5,7-dihydro-3H-pyrrolo[2,3-d]pyrimidine-4,6-dione] | 98 |
| COCCCSc1nc2cc[nH]c2c(=O)n1-c1ccc(OCC(F)(F)F)cc1 [Example 132, 2-[(3-Methoxypropyl)sulfanyl]-3-[4-(2,2,2-trifluoroethoxy)phenyl]-3,5-dihydro-4H-pyrrolo[3,2-d]pyrimidin-4-one] | 107 |
| CCSc1nc2cc[nH]c2c(=O)n1-c1ccc(OCC(F)(F)F)cc1 [Example 104, 2-(Ethylsulfanyl)-3-[4-(2,2,2-trifluoroethoxy)phenyl]-3,5-dihydro-4H-pyrrolo[3,2-d]pyrimidin-4-one] | 100 |
| N#CCCCCCSc1nc2cc[nH]c2c(=O)n1-c1ccc(OCC(F)(F)F)cc1 [Example 88, 6-({4-Oxo-3-[4-(2,2,2-trifluoroethoxy)phenyl]-4,5-dihydro-3H-pyrrolo[3,2-d]pyrimidin-2-yl}sulfanyl)hexanenitrile] | 100 |
| CCOCCCSc1nc2c(c(=O)n1-c1ccc(OCC(F)(F)F)cc1)CC(=O)N2 [Example 302, 2-[(3-Ethoxypropyl)sulfanyl]-3-[4-(2,2,2-trifluoroethoxy)phenyl]-5,7-dihydro-3H-pyrrolo[2,3-d]pyrimidine-4,6-dione] | 94 |
| CCCOc1nc2[nH]ccc2c(=O)n1-c1ccc(OCC(F)(F)F)cc1 [Example 217, 2-Propoxy-3-[4-(2,2,2-trifluoroethoxy)phenyl]-3,7-dihydro-4H-pyrrolo[2,3-d]pyrimidin-4-one] | 99 |
| N#CCCNC(=O)CCCSc1nc2cc[nH]c2c(=O)n1-c1ccc(OCC(F)(F)F)cc1 [Example 67] | 96 |
| O=c1c2cc[nH]c2nc(OCC(F)F)n1-c1ccc(OCC(F)(F)F)cc1 [Example 244, 2-(2,2-Difluoroethoxy)-3-[4-(2,2,2-trifluoroethoxy)phenyl]-3,7-dihydro-4H-pyrrolo[2,3-d]pyrimidin-4-one] | 101 |
| CCOCCOCCSc1nc2cc[nH]c2c(=O)n1-c1ccc(OCC2CC2)cc1 [Example 142, 3-[4-(Cyclopropylmethoxy)phenyl]-2-{[2-(2-ethoxyethoxy)ethyl]sulfanyl}-3,5-dihydro-4H-pyrrolo[3,2-d]pyrimidin-4-one] | 98 |
| O=c1c2cc[nH]c2nc(SCCO)n1-c1ccc(OCC(F)(F)F)cc1 [Example 214, 2-[(2-Hydroxyethyl)sulfanyl]-3-[4-(2,2,2-trifluoroethoxy)phenyl]-3,7-dihydro-4H-pyrrolo[2,3-d]pyrimidin-4-one] | 101 |
| CCSc1nc2[nH]ccc2c(=O)n1-c1ccc(OC(F)(F)F)cc1 [Example 254, 2-(Ethylsulfanyl)-3-[4-(trifluoromethoxy)phenyl]-3,7-dihydro-4H-pyrrolo[2,3-d]pyrimidin-4-one] | 98 |
| O=c1c2[nH]ccc2nc(SCCC2(O)CCOCC2)n1-c1ccc(OCC2CC2)cc1 [Example 155, 3-[4-(Cyclopropylmethoxy)phenyl]-2-{[2-(4-hydroxytetrahydro-2H-pyran-4-yl)ethyl]sulfanyl}-3,5-dihydro-4H-pyrrolo[3,2-d]pyrimidin-4-one] | 99 |
| CCSc1nc2[nH]c(Cl)cc2c(=O)n1-c1ccc(OCC(F)(F)F)cc1 [Example 231, 6-Chloro-2-(ethylsulfanyl)-3-[4-(2,2,2-trifluoroethoxy)phenyl]-3,7-dihydro-4H-pyrrolo[2,3-d]pyrimidin-4-one] | 101 |
| O=C(CCCSc1nc2cc[nH]c2c(=O)n1-c1ccc(OCC(F)(F)F)cc1)N1CCOCC1 [Example 109, 2-[(4-Morpholin-4-yl-4-oxobutyl)sulfanyl]-3-[4-(2,2,2-trifluoroethoxy)phenyl]-3,5-dihydro-4H-pyrrolo[3,2-d]pyrimidin-4-one] | 101 |
| O=c1c2[nH]ccc2nc(SCCCS(=O)(=O)CC2CC2)n1-c1ccc(OCC2CC2)cc1 [Example 166, 3-[4-(Cyclopropylmethoxy)phenyl]-2-({3-[(cyclopropylmethyl)sulfonyl]propyl}sulfanyl)-3,5-dihydro-4H-pyrrolo[3,2-d]pyrimidin-4-one] | 101 |
| CS(=O)(=O)CCCSc1nc2[nH]ccc2c(=O)n1-c1ccc(OCC2CC2)cc1 [Example 215, 3-[4-(Cyclopropylmethoxy)phenyl]-2-{[3-(methylsulfonyl)propyl]sulfanyl}-3,7-dihydro-4H-pyrrolo[2,3-d]pyrimidin-4-one] | 102 |

Source: patent US20100190747A1, “Fused ring compound and use thereof” (priority 2009, published 2010)
